Values after ≈ are worked out from the molar mass of the structure shown. Structures can show the parent of a compound that is named as a salt.
How the values were obtained:
Enterococcus faecalis = test: microbe, parasite or virus in culture; assay type: functional; settings: ATCC 29212, 24 h
Description: Antibacterial activity against Enterococcus faecalis ATCC 29212 after 24 hrs by broth microdilution method

Staphylococcus aureus [1] = test: Antibacterial activity against methicillin-sensitive Staphylococcus aureus ATCC 25923 after 24 hrs by broth microdilution method; assay type: functional; settings: ATCC 25923, 24 h
Saccharomyces cerevisiae [2] = test: Toxicity in Saccharomyces cerevisiae harboring rad52/rad9 deletion mutant after 24 to 48 hrs by broth microdilution method; assay type: organism-based; settings: in vivo
Staphylococcus aureus [3] = test: Antibacterial activity against methicillin-resistant vancomycin-intermediate resistant Staphylococcus aureus NRS402 after 24 hrs by broth microdilution method; assay type: functional; settings: NRS402, 24 h
Saccharomyces cerevisiae [4] = test: Toxicity in Saccharomyces cerevisiae harboring mad2 deletion mutant after 24 to 48 hrs by broth microdilution method; assay type: organism-based; settings: in vivo
Saccharomyces cerevisiae [5] = test: Toxicity in Saccharomyces cerevisiae BY4741 after 24 to 48 hrs by broth microdilution method; assay type: organism-based; settings: in vivo
Saccharomyces cerevisiae [6] = test: Toxicity in Saccharomyces cerevisiae harboring yap1 deletion mutant after 24 to 48 hrs by broth microdilution method; assay type: organism-based; settings: in vivo
Saccharomyces cerevisiae [7] = test: Toxicity in Saccharomyces cerevisiae harboring yap1 deletion mutant assessed as cell growth at 128 uM after 24 to 48 hrs by broth microdilution method relative to control; assay type: organism-based; settings: in vivo
Saccharomyces cerevisiae [8] = test: Toxicity in Saccharomyces cerevisiae BY4741 assessed as cell growth at 128 uM after 24 to 48 hrs by broth microdilution method relative to control; assay type: organism-based
Saccharomyces cerevisiae [9] = test: Toxicity in Saccharomyces cerevisiae harboring mad2 deletion mutant assessed as cell growth at 128 uM after 24 to 48 hrs by broth microdilution method relative to control; assay type: organism-based; settings: in vivo
Saccharomyces cerevisiae [10] = test: Toxicity in Saccharomyces cerevisiae harboring rad52/rad9 deletion mutant assessed as cell growth at 128 uM after 24 to 48 hrs by broth microdilution method relative to control; assay type: organism-based; settings: in vivo

SMILES | MIC (Enterococcus faecalis) | MIC (Staphylococcus aureus [1]) | MIC (Saccharomyces cerevisiae [2]) | MIC (Staphylococcus aureus [3]) | MIC (Saccharomyces cerevisiae [4]) | MIC (Saccharomyces cerevisiae [5]) | MIC (Saccharomyces cerevisiae [6]) | Activity (Saccharomyces cerevisiae [7]) | Activity (Saccharomyces cerevisiae [8]) | Activity (Saccharomyces cerevisiae [9]) | Activity (Saccharomyces cerevisiae [10])
Oc1cc(O)c2c(c1)oc1cc(O)cc(O)c12 | > 128 µM | > 128 µM | > 128 µM | > 128 µM | > 128 µM | > 128 µM | > 128 µM |  |  |  | 
CCC(C)C(=O)c1c(O)cc(O)cc1O (stereo not given) | 64 µM (≈ 13.5 µg/mL) | 64 µM (≈ 13.5 µg/mL) | > 128 µM | 32 µM (≈ 6.73 µg/mL) | > 128 µM | > 128 µM | > 128 µM |  |  |  | 
CCC(C)C(=O)c1c(O)cc(O)c2c1oc1c(C(=O)C(C)CC)c(O)cc(O)c12 (stereo not given) | 32 µM (≈ 12.8 µg/mL) | 8 µM (≈ 3.2 µg/mL) | > 128 µM | 8 µM (≈ 3.2 µg/mL) | > 128 µM | > 128 µM | > 128 µM |  |  |  | 
CCC(C)C(=O)c1c(O)cc(O)c(CCC(C)C)c1O (stereo not given) | 32 µM (≈ 8.97 µg/mL) | 32 µM (≈ 8.97 µg/mL) | > 128 µM | 32 µM (≈ 8.97 µg/mL) | > 128 µM | > 128 µM | > 128 µM | 20 to 40% | 20 to 40% | 20 to 40% | 20 to 40%
CCC(C)C(=O)c1c(O)c(CCC(C)C)c(O)c(-c2c(O)c(CCC(C)C)c(O)c(C(=O)C(C)CC)c2O)c1O (stereo not given) | 4 µM (≈ 2.23 µg/mL) | 8 µM (≈ 4.47 µg/mL) | > 128 µM | 1 µM (≈ 0.559 µg/mL) | > 128 µM | > 128 µM | > 128 µM |  |  |  | 
CCCc1c(O)c(C(=O)C(C)CC)c(O)c(-c2c(O)c(CCC)c(O)c(C(=O)C(C)CC)c2O)c1O (stereo not given) | 2 µM (≈ 1.01 µg/mL) | 4 µM (≈ 2.01 µg/mL) | > 128 µM | 0.5 µM (≈ 0.251 µg/mL) | > 128 µM | > 128 µM | > 128 µM |  |  |  | 
CCCc1c(O)cc(O)c(C(=O)C(C)CC)c1O (stereo not given) | 64 µM (≈ 16.1 µg/mL) | 64 µM (≈ 16.1 µg/mL) | > 128 µM | 64 µM (≈ 16.1 µg/mL) | > 128 µM | > 128 µM | > 128 µM | 20 to 40% | 20 to 40% | 20 to 40% | 20 to 40%
CCCc1c(O)c(C(=O)C(C)CC)c2oc3c(C(=O)C(C)CC)c(O)c(CCC)c(O)c3c2c1O (stereo not given) | 0.5 µM (≈ 0.242 µg/mL) | 0.5 µM (≈ 0.242 µg/mL) | > 128 µM | 0.5 µM (≈ 0.242 µg/mL) | > 128 µM | > 128 µM | > 128 µM |  |  |  | 
Cc1onc(-c2ccccc2)c1C(=O)N[C@@H]1C(=O)N2[C@@H]1SC(C)(C)[C@@H]2C(=O)O | 9.5 µM (≈ 3.81 µg/mL) | ≤ 0.3 µM |  | 150 µM (≈ 60.2 µg/mL) |  |  |  |  |  |  | 
CN[C@H](CC(C)C)C(=O)N[C@H]1C(=O)N[C@@H](CC(N)=O)C(=O)N[C@H]2C(=O)N[C@H]3C(=O)N[C@H](C(=O)N[C@H](C(=O)O)c4cc(O)cc(O)c4-c4cc3ccc4O)[C@H](O)c3ccc(c(Cl)c3)Oc3cc2cc(c3O[C@@H]2O[C@H](CO)[C@@H](O)[C@H](O)[C@H]2O[C@H]2C[C@](C)(N)[C@H](O)[C@H](C)O2)Oc2ccc(cc2Cl)[C@H]1O [VANCOMYCIN HYDROCHLORIDE] | 1.4 µM | 0.7 µM |  | 5.5 µM |  |  |  |  |  |  | 

Source: ChEMBL document CHEMBL4130498, “Synthesis and antibacterial activity of new symmetric polyoxygenated dibenzofurans” (Eur J Med Chem, 2017)
